Assay results: PubChem BioAssay AID1963964 (Molecular Pharmacology Branch, DTP, NCI, 2024)
Several values for one entry are separate records, joined by “and”; a condition that tells them apart may be missing. Equal values may be shown once.

Tested on: 997726-040-R-J2-PDC tumor spheroids, viability
Assay: Anticancer human tumor 997726-040-R-J2-PDC patient-derived squamous cell lung carcinoma cell line growth inhibition [PI3K]
Details: spheroids with HUVEC and MSC; for viability, T/C: stronger effect = lower value
How it was run: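 Targeted small molecules plus PI3K inhibitors, half-log dose series from Cmax (default top 10 microM), were applied to heterotypic spheroids of cancer cells with HUVEC and MSCs. Viability indicated growth inhibition.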

[1] = curve of first compound, second compound 0.0316 µM
[2] = curve of first compound, second compound 0.1 µM
[3] = curve of first compound, second compound 0.316 µM
[4] = curve of first compound, second compound 1 µM
[5] = curve of first compound, second compound 3.16 µM
[6] = curve of first compound, second compound 10 µM
[7] = second compound 0.0316 µM, first compound 0.0316 µM
[8] = second compound 0.0316 µM, first compound 0.1 µM
[9] = second compound 0.0316 µM, first compound 0.316 µM
[10] = second compound 0.0316 µM, first compound 1 µM
[11] = second compound 0.0316 µM, first compound 3.16 µM
[12] = second compound 0.0316 µM, first compound 10 µM
[13] = second compound 0.1 µM, first compound 0.0316 µM
[14] = second compound 0.1 µM, first compound 0.1 µM
[15] = second compound 0.1 µM, first compound 0.316 µM
[16] = second compound 0.1 µM, first compound 1 µM
[17] = second compound 0.1 µM, first compound 3.16 µM
[18] = second compound 0.1 µM, first compound 10 µM
[19] = second compound 0.316 µM, first compound 0.0316 µM
[20] = second compound 0.316 µM, first compound 0.1 µM
[21] = second compound 0.316 µM, first compound 0.316 µM
[22] = second compound 0.316 µM, first compound 1 µM
[23] = second compound 0.316 µM, first compound 3.16 µM
[24] = second compound 0.316 µM, first compound 10 µM
[25] = second compound 1 µM, first compound 0.0316 µM
[26] = second compound 1 µM, first compound 0.1 µM
[27] = second compound 1 µM, first compound 0.316 µM
[28] = second compound 1 µM, first compound 1 µM
[29] = second compound 1 µM, first compound 3.16 µM
[30] = second compound 1 µM, first compound 10 µM
[31] = second compound 3.16 µM, first compound 0.0316 µM
[32] = second compound 3.16 µM, first compound 0.1 µM
[33] = second compound 3.16 µM, first compound 0.316 µM
[34] = second compound 3.16 µM, first compound 1 µM
[35] = second compound 3.16 µM, first compound 3.16 µM
[36] = second compound 3.16 µM, first compound 10 µM
[37] = second compound 10 µM, first compound 0.0316 µM
[38] = second compound 10 µM, first compound 0.1 µM
[39] = second compound 10 µM, first compound 0.316 µM
[40] = second compound 10 µM, first compound 1 µM
[41] = second compound 10 µM, first compound 3.16 µM
[42] = second compound 10 µM, first compound 10 µM
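Further: spheroids exposed to compounds for seven days before readout.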

**Q.** Which results are given for C=CC(=O)N1CCN(c2nc(=O)n(-c3c(C)ccnc3C(C)C)c3nc(-c4c(O)cccc4F)c(F)cc23)C(C)C1 (stereo not given)?
**A.** viability, T/C (compound 0.0316 µM): 105% [middle of 4 runs]; viability, T/C (compound 0.1 µM): 91.2% and 100% (2×) and 96.7%; viability, T/C (compound 0.316 µM): 109% [middle of 4 runs]; viability, T/C (compound 1 µM): 109% [middle of 4 runs]; viability, T/C (compound 3.16 µM): 126% [middle of 4 runs]; viability, T/C (compound 10 µM): 122% [middle of 4 runs]; IC50 (curve of compound): > 10 µM

**Q.** For Cn1nccc1Nc1nccc(-c2ccn(C(CO)c3ccc(Cl)c(F)c3)c(=O)c2)n1 (stereo not given) + Cc1nc(NC(=O)N2CCCC2C(N)=O)sc1-c1ccnc(C(C)(C)C(F)(F)F)c1, which IC50 [1] is on record?
**A.** 6.27 µM

**Q.** And the IC50 [2]?
**A.** 0.307 µM

**Q.** And the IC50 [3]?
**A.** 0.0599 µM

**Q.** What about the IC50 [4] of the same compound?
**A.** < 0.0316 µM

**Q.** What about the IC50 [5] of the same compound?
**A.** < 0.0316 µM

**Q.** What about the IC50 [6] of the same compound?
**A.** < 0.0316 µM

**Q.** What about the viability, T/C [7] of the same compound?
**A.** 72.8%

**Q.** What about the viability, T/C [8] of the same compound?
**A.** 72.3%

**Q.** What about the viability, T/C [9] of the same compound?
**A.** 63.3%

**Q.** What about the viability, T/C [10] of the same compound?
**A.** 65.4%

**Q.** And the viability, T/C [11]?
**A.** 55%

**Q.** And the viability, T/C [12]?
**A.** 46.1%

**Q.** And the viability, T/C [13]?
**A.** 64.7%

**Q.** And the viability, T/C [14]?
**A.** 75.7%

**Q.** What about the viability, T/C [15] of the same compound?
**A.** 48.3%

**Q.** And the viability, T/C [16]?
**A.** 52%

**Q.** What about the viability, T/C [17] of the same compound?
**A.** 49.3%

**Q.** What about the viability, T/C [18] of the same compound?
**A.** 48.1%

**Q.** And the viability, T/C [19]?
**A.** 55.4%

**Q.** What about the viability, T/C [20] of the same compound?
**A.** 44.4%

**Q.** What about the viability, T/C [21] of the same compound?
**A.** 43%

**Q.** And the viability, T/C [22]?
**A.** 34.9%

**Q.** What about the viability, T/C [23] of the same compound?
**A.** 38.7%

**Q.** And the viability, T/C [24]?
**A.** 33%

**Q.** And the viability, T/C [25]?
**A.** 41.9%

**Q.** What about the viability, T/C [26] of the same compound?
**A.** 36.8%

**Q.** What about the viability, T/C [27] of the same compound?
**A.** 32.7%

**Q.** What about the viability, T/C [28] of the same compound?
**A.** 30.2%

**Q.** What about the viability, T/C [29] of the same compound?
**A.** 28%

**Q.** What about the viability, T/C [30] of the same compound?
**A.** 23.3%

**Q.** And the viability, T/C [31]?
**A.** 29.8%

**Q.** What about the viability, T/C [32] of the same compound?
**A.** 27.7%

**Q.** And the viability, T/C [33]?
**A.** 23.2%

**Q.** What about the viability, T/C [34] of the same compound?
**A.** 28.3%

**Q.** What about the viability, T/C [35] of the same compound?
**A.** 27%

**Q.** And the viability, T/C [36]?
**A.** 16.1%

**Q.** And the viability, T/C [37]?
**A.** 17.1%

**Q.** What about the viability, T/C [38] of the same compound?
**A.** 12.8%

**Q.** And the viability, T/C [39]?
**A.** 15.8%

**Q.** And the viability, T/C [40]?
**A.** 14.3%

**Q.** What about the viability, T/C [41] of the same compound?
**A.** 17.2%

**Q.** And the viability, T/C [42]?
**A.** 7.87%

**Q.** Which results are given for C#Cc1c(F)ccc2cc(O)cc(-c3ncc4c(N5CC6CCC(C5)N6)nc(OCC56CCCN5CC(F)C6)nc4c3F)c12 (stereo not given) + CC(Nc1ncnc2nc[nH]c12)c1cc2cccc(Cl)c2c(=O)n1-c1ccccc1?
**A.** IC50 [1]: > 10 µM; IC50 [2]: > 10 µM; IC50 [3]: > 10 µM; IC50 [4]: > 10 µM; IC50 [5]: > 10 µM; IC50 [6]: < 0.0316 µM; viability, T/C [7]: 90.6%; viability, T/C [8]: 99.3%; viability, T/C [9]: 101%; viability, T/C [10]: 85.7%; viability, T/C [11]: 88.1%; viability, T/C [12]: 96%; viability, T/C [13]: 101%; viability, T/C [14]: 96.5%; viability, T/C [15]: 83.3%; viability, T/C [16]: 97.6%; viability, T/C [17]: 82.1%; viability, T/C [18]: 73.3%; viability, T/C [19]: 97.1%; viability, T/C [20]: 103%; viability, T/C [21]: 98%; viability, T/C [22]: 94%; viability, T/C [23]: 95.7%; viability, T/C [24]: 61.5%; viability, T/C [25]: 87.3%; viability, T/C [26]: 93.8%; viability, T/C [27]: 82.7%; viability, T/C [28]: 84.6%; viability, T/C [29]: 79.9%; viability, T/C [30]: 63.5%; viability, T/C [31]: 71.6%; viability, T/C [32]: 68.3%; viability, T/C [33]: 61.4%; viability, T/C [34]: 72.3%; viability, T/C [35]: 65.3%; viability, T/C [36]: 57.7%; viability, T/C [37]: 49.1%; viability, T/C [38]: 50.1%; viability, T/C [39]: 45.3%; viability, T/C [40]: 45.5%; viability, T/C [41]: 39.1%; viability, T/C [42]: 35.1%

**Q.** Which results are given for CC(=O)c1c(C)c2cnc(Nc3ccc(N4CCNCC4)cn3)nc2n(C2CCCC2)c1=O?
**A.** viability, T/C (compound 0.000316 µM): 94.7% [middle of 4 runs]; viability, T/C (compound 0.001 µM): 92.8% [middle of 4 runs]; viability, T/C (compound 0.00316 µM): 99.1% [middle of 4 runs]; viability, T/C (compound 0.01 µM): 91.3% [middle of 4 runs]; viability, T/C (compound 0.0316 µM): 82.2% [middle of 4 runs]; viability, T/C (compound 0.1 µM): 62.8% [middle of 4 runs]; IC50 (curve of compound): > 0.1 µM

**Q.** With CCCS(=O)(=O)Nc1ccc(F)c(C(=O)c2c[nH]c3ncc(-c4ccc(Cl)cc4)cc23)c1F + Cc1nc(NC(=O)N2CCCC2C(N)=O)sc1-c1ccnc(C(C)(C)C(F)(F)F)c1 as the compound, how does the IC50 [1] read?
**A.** 6.89 µM

**Q.** What about the IC50 [2] of the same compound?
**A.** 6 µM

**Q.** What about the IC50 [3] of the same compound?
**A.** 4.66 µM

**Q.** And the IC50 [4]?
**A.** 0.0316 µM

**Q.** What about the IC50 [5] of the same compound?
**A.** < 0.0316 µM

**Q.** What about the IC50 [6] of the same compound?
**A.** < 0.0316 µM

**Q.** And the viability, T/C [7]?
**A.** 88.6%

**Q.** What about the viability, T/C [8] of the same compound?
**A.** 93.5%

**Q.** And the viability, T/C [9]?
**A.** 103%

**Q.** What about the viability, T/C [10] of the same compound?
**A.** 122%

**Q.** What about the viability, T/C [11] of the same compound?
**A.** 103%

**Q.** What about the viability, T/C [12] of the same compound?
**A.** 25%

**Q.** And the viability, T/C [13]?
**A.** 76.4%

**Q.** What about the viability, T/C [14] of the same compound?
**A.** 80.5%

**Q.** What about the viability, T/C [15] of the same compound?
**A.** 80.5%

**Q.** And the viability, T/C [16]?
**A.** 95.7%

**Q.** What about the viability, T/C [17] of the same compound?
**A.** 88.4%

**Q.** What about the viability, T/C [18] of the same compound?
**A.** 22.6%

**Q.** And the viability, T/C [19]?
**A.** 55.6%

**Q.** And the viability, T/C [20]?
**A.** 62.3%

**Q.** What about the viability, T/C [21] of the same compound?
**A.** 69.8%

**Q.** What about the viability, T/C [22] of the same compound?
**A.** 63.7%

**Q.** What about the viability, T/C [23] of the same compound?
**A.** 66.9%

**Q.** And the viability, T/C [24]?
**A.** 23.3%

**Q.** What about the viability, T/C [25] of the same compound?
**A.** 41.9%

**Q.** And the viability, T/C [26]?
**A.** 40.5%

**Q.** What about the viability, T/C [27] of the same compound?
**A.** 48.3%

**Q.** What about the viability, T/C [28] of the same compound?
**A.** 57.1%

**Q.** And the viability, T/C [29]?
**A.** 52%

**Q.** And the viability, T/C [30]?
**A.** 18.1%

**Q.** And the viability, T/C [31]?
**A.** 29.2%

**Q.** And the viability, T/C [32]?
**A.** 31.4%

**Q.** And the viability, T/C [33]?
**A.** 31.7%

**Q.** And the viability, T/C [34]?
**A.** 34.7%

**Q.** What about the viability, T/C [35] of the same compound?
**A.** 31.1%

**Q.** What about the viability, T/C [36] of the same compound?
**A.** 17.9%

**Q.** What about the viability, T/C [37] of the same compound?
**A.** 16.4%

**Q.** What about the viability, T/C [38] of the same compound?
**A.** 16.9%

**Q.** What about the viability, T/C [39] of the same compound?
**A.** 13.8%

**Q.** What about the viability, T/C [40] of the same compound?
**A.** 17.1%

**Q.** What about the viability, T/C [41] of the same compound?
**A.** 11.9%

**Q.** And the viability, T/C [42]?
**A.** 7.69%
